Converted amounts (≈) assume the structure as drawn. Like-named read-outs stand apart in the source and are kept apart here. Some results are limits rather than exact numbers.

For series [1], the target named is T1, murine SR-BI, isoform 1 (Mus musculus, UniProt Q61009).
T1 construct: expressed in transfected cells; host or cells: ldlA[mSR-BI], Chinese hamster ovary (CHO) cells lacking LDL receptor (Krieger Laboratory)
T1 sequence (Q61009 1-509): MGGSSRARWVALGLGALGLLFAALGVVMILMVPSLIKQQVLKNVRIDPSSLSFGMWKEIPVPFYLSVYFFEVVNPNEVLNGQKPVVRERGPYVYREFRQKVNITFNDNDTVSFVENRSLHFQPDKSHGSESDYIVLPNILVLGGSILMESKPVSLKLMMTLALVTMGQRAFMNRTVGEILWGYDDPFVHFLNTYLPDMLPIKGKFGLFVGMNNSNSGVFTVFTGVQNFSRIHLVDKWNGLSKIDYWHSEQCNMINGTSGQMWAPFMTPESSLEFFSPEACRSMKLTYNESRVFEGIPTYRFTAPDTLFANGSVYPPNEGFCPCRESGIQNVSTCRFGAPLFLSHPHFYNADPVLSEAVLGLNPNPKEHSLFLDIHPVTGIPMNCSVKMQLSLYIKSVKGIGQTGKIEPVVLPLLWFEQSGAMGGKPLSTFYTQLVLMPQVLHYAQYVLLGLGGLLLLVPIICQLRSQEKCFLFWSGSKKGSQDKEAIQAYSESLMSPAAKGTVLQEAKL
Nature of the series: DiI-HDL uptake assay (primary assay). Format: cell-based. The following applies: ldlA[mSR-BI] cells, 3 hours with compound. The protocol: The following cell lines were used in this study: • ldlA[mSR-BI] is a Chinese hamster ovary (CHO) cell line that overexpresses murine SR-BI, isoform 1 (NP_058021) and was obtained from the (Krieger Laboratory). This cell line was used for the primary assay and several secondary assays. […] Assays DiI-HDL Uptake Assay (Primary Assay AID Nos. 488896, 493194, 540354 588392, 588553, 588548, 588754, 588828, 588833)
ldlA[mSR-BI] cells were plated into 384-well plates at 30 μl per well and incubated overnight. As a measurable surrogate for cholesterol uptake, human HDL particles were treated with the lipophilic fluorescent dye DiI and exposed to ldlA[mSR-BI] cells in lipoprotein-free media (Ham's F12/0.5% fatty acid-free Bovine Serum Albumin (BSA)/25 mM HEPES pH 7.4 plus 10 μg protein/ml DiI-HDL). Cells took up the DiI via SR-BI over 3 hours in the presence of compound. After significant uptake of the DiI, the cells became fluorescent. The level of fluorescence correlates with the amount of DiI uptake and can be measured with a standard plate reader (here a PerkinElmer EnVision plate reader was used). The uptake of lipid (represented by DiI) was inhibited by the positive control compound BLT-1 or with an excess of HDL untreated with DiI. Primary HTS data were analyzed in Genedata Screener Assay Analyzer, and were normalized against DMSO and the positive control (1 μM BLT-1). For the HTS, the average of two replicates was used to rank order activity and to choose compounds for retests. For dose studies, percent (%) activity was determined for each concentration and the concentration response curves (CRCs) were generated with Genedata Condeseo.
To identify novel inhibitors, SR-BI-mediated lipid uptake was measured in an engineered cell line that minimized potential uptake by other mechanisms, including via the LDL receptor (1). ldlA[mSR-BI] cells overexpress murine isoform 1 and selectively take up HDL lipid at similar levels as “has been reported for cultured mouse adrenal cells, perfused organs, and liver, adrenal gland and ovary in vivo” (1). This primary cell-based assay was used in a pilot screen that identified BLTs 1 through 5. The assay was slightly modified from the original protocol of Nieland et al. to increase throughput and to ease automation procedures.
Briefly, the plate reader was switched to a Perkin-Elmer EnVision, several washing steps were eliminated, and the cell number per well was reduced without impacting the robustness of the assay. The automated assay was first tested with a validation set of 2,240 compounds. These compounds were tested in duplicate with in-plate neutral (DMSO) and positive (1 μM BLT-1) controls. Robustness, reproducibility, and variability parameters were analyzed before initiating the full HTS. The HTS was run over the course of several weeks. Data were normalized relative to controls, and plate patterns were corrected using a multiplicative algorithm in Genedata Screener Assay Analyzer. For each compound, the average of the two replicates was determined and used for subsequent analysis.

In series [2] the test system is hepatitis C virus (HCV). Nature of the series: In vitro testing with Huh-7.5 cells infected with HCV. The format is cell-based. The following applies: for inhibition of HCV replication (in words): Huh-7.5 cells infected with Jcl 378-1 TagRFP (MOI=0.1), 3 dpi. The protocol:
A series of tests were conducted using the compound of Formula II (CID53393835/ML279), other known inhibitors of SR-BI and controls with cells infected with hepatitis C virus (HCV). The cells (Huh-7.5 cells infected with Jcl 378-1 TagRFP (MOI=0.1) 3 dpi) were treated with the following SR-BI compounds and controls:
Three different infection protocols were followed: (1) no wash—virus inoculum was removed 4hpi and fresh medium containing compounds added without washing cells; (2) 5× wash—virus inoculum was removed 4hpi, cells were washed 5× with PBS and fresh medium containing compounds added; and (3) no wash Opt—infection were performed in serum-free OptiMem; virus inoculum was removed 4hpi and fresh medium containing compounds added without washing cells. FIG. 90 provides a comparison of the three different infection set-ups. FIG. 91 provides a comparison of two independent experiments.

For series [3], the system named is HCVcc and HCVpp. The following applies: primary human hepatocytes and/or human hepatoma cell lines; cited from earlier work.
The test system of series [4] is endocytosis of transferrin. In words: Transferrin endocytosis assay. Format: cell-based, Chinese hamster. The following applies: concentrations up to 35 μM. The source says: Transferrin Endocytosis Assay (SA 3: AID No. 602134)
This assay measures the endocytosis of an independent ligand, transferrin, which is not taken up via SR-BI but by clathrin-mediated endocytosis; thus providing a measure of the selectivity of the inhibitors. Alexa-594-labeled transferrin is taken into the cell via endocytosis and localization of labeled transferrin can be quantitated in the various intracellular compartments. […] Inhibitors of interest should act selectively at SR-BI and should have no activity in this assay.
Cells were pre-treated with compound for 3 hours and then treated with the Alexa-594 transferrin reagent for 30 minutes (Catalog No. T-13343; Invitrogen) in serum-free media. Plates of cells were then placed onto ice, washed with ice cold PBS, and then fixed with 4% paraformaldehyde. In addition, the nuclei were stained with 300 nM 4′,6-diamidino-2-phenylindole (DAPI) (Catalog No. 21490; Invitrogen). The cells were imaged with the Molecular Devices IXM microscope. Translocation measurements were performed using MetaExpress software and normalized for cell number.

The target of series [5] is T2, SR-BI (Mus musculus, UniProt Q61009).
T2 sequence (Q61009 1-509): T1 sequence (Q61009 1-509)
In words: HDL binding assay (Alexa 488 HDL). Format: cell-based, murine. Also on record: expressed in transfected cells; host or cells: ldlA[mSR-BI], Chinese hamster ovary (CHO) cells lacking LDL receptor (Krieger Laboratory). The following applies: Alexa Fluor 488-labeled HDL. The protocol: HDL binding was assessed using Alexa Fluor 488-labeled HDL particles. For this assay, the Alexa 488 dye was directly covalently bound to apolipoprotein components of the HDL particle via primary amines; thus, no transfer of the fluorophore to cell membranes occurs. Instead, direct binding of the HDL particles to SR-BI can be measured. As a positive control, BLT-1, which is known to increase binding, was used at 1 μM. It is possible that a compound can reduce binding of HDL to the receptor, and this would lead to a decrease in signal. This assay is used to characterize the mechanism of action of a particular compound; therefore, any outcome in the assay is acceptable. Data were normalized against DMSO and the positive control (1 μM BLT-1) in Genedata Assay Analyzer.

Series [6] concerns ldlA[mSR-BI] cells. Nature of the series: Cell cytotoxicity assay (CellTiter-Glo). How it is done: It is possible that a compound will cause cells to decrease HDL-mediated DiI uptake due to nonspecific consequences of cellular toxicity, representing a second class of false positive hits. The cells were treated with compounds for 3 hours or 24 hours, and then cell viability was measured using the CellTiter-Glo Assay (Promega), a luciferase-based reagent that measures cellular ATP levels. The compounds were tested at different concentrations to determine IC50 values. […] Data were normalized against DMSO and the positive control (1 μM BLT-1) in Genedata Assay Analyzer.
All available dry powder samples of the remaining, non-quenching compounds were procured from commercial sources and purities were determined. The compounds obtained were then retested in the primary assay and in cytotoxicity assays. We wanted to rule out any compounds that were cytotoxic, especially in the 3-hour time span of the primary DiI-HDL uptake assay. Therefore, compounds were tested in ldl[mSR-BI] cells for cytotoxicity at 3 hours and 24 hours using the CellTiter-Glo assay (Promega) that measures cellular ATP as a marker of cell viability. […] Compounds were screened for inhibition of endocytosis using labeled transferrin, which is known to bind the transferrin receptor, enter cells by clathrin-mediated endocytosis, and move to endosomes before being recycled to the cell surface.

Series [7] in a line: Solubility in PBS. Format: physicochemical. The following applies: PBS pH 7.4, 23° C., 1% DMSO. The protocol:
We noticed that the concentration of the probe fluctuated through the course of the assay (data not shown). We believe that this fluctuation is due to the low kinetic solubility of the probe. Thus, we decided to determine the amount of undissolved probe present in the well after it was treated with PBS for a given length of time, relative to the amount of undissolved probe at the start of the assay. The wells were centrifuged and the supernatant was removed after various time points, then acetonitrile was added to dissolve the remaining solid in the wells, and the amount of probe was quantified. […] The stability of the probe was confirmed by measuring stability in human plasma, with >99% remaining after a 5-hour incubation period. […] FIG. 5 summarizes known properties of the probe.

For series [8] the following is noted: mice; cited from earlier work.
For series [9] the following is noted: hamsters; cited from earlier work.
Series [10] deals with T2, SR-BI. The following applies: cited from earlier work.

On to `C[C@@H](C(=O)NC1CCCC1)N(C(=O)Cn1nnc(-c2ccc3c(c2)OCO3)n1)C1CCCCC1` [(S)-isomer], for which the concentration for half-maximal inhibition (IC50) in series [1] was 1600 nM.
Consider `COc1c(NC(=O)C(=O)c2ccc(OCCN3CCOCC3)c3ccccc23)cc(C(C)(C)C)cc1NS(C)(=O)=O` [ITX-5061], for which the entries for the “inhibition of HCV replication (in words)” value in series [2] (listed as 9) and in series [2] (listed as SRB1-9) were “able to inhibit HCV replication” and “inhibited viral replication”, respectively. Further, in [2] (dose dependence), the “mean fluorescence intensity (MFI) of HCV positive cells (in words)” value is on record as “this increase was not seen”. In addition, the concentration for half-maximal inhibition (IC50) in [1] is 254 nM. In series [3], the “HCVcc and HCVpp infection (in words)” value is “inhibit HCVcc and HCVpp infection”.
Consider `COCC(=O)N1CCc2cc(-c3csc(NC(=O)c4cc(OC)cc(OC)c4)n3)ccc21` [ML278, reference compound], for which, in [1], the 50% inhibitory concentration (IC50) came to 0.93 nM.
Turning to `COc1ccc(-c2nnn(CC(=O)N(C3CCCCC3)C(C)C(=O)NC3CCCC3)n2)cc1OC` (centres unmarked) [MLS000888573, reference compound], the “endocytosis of transferrin (in words)” value in series [4] is given as “not grossly perturbing cellular membrane trafficking pathways”. For the same molecule, the activity in [5] was half-maximal at 600 nM (AC50). Also, the concentration for half-maximal inhibition (IC50) in [6] (read-out: 3 h CellTiter-Glo IC50, 3 hours treatment) is more than 35000 nM; in series [6] (read-out: 24 h CellTiter-Glo cytotoxicity IC50, 24 hours treatment), more than 35000 nM; in series [1], 51 nM; in [1] (listed as hit compound), 58 nM. In series [7], this molecule had a solubility of 114 µM (≈ 55.2 µg/mL).
Consider `CC(C)(C)OC(=O)N1CCN(c2ccc(NC(=O)c3cc([N+](=O)[O-])ccc3Cl)cc2)CC1` [R-138329], for which the “HDL-cholesterol (in words)” value in series [8] and in series [9] was “increased HDL-cholesterol” in each case.
As for `COc1ccc(Cl)cc1C(=O)NCCc1ccc(S(=O)(=O)NC(=O)NC2CCCCC2)cc1` [glyburide], the “cholesterol efflux inhibition (in words)” value in [10] was “relatively weak inhibitor of cholesterol efflux”.

The values above are taken from patent publication US9884851B2, “Heterocycle-bisamide inhibitors of scavenger receptor BI” (THE BROAD INSTITUTE, INC., priority 2012, dated 2018).
